Measured values: article PMC11213733, “Computational approaches identify a transcriptomic fingerprint of drug-induced structural cardiotoxicity” (Cell Biology and Toxicology, 2024)
Structures can show the parent of a compound that is named as a salt.

Legend:
cardiac microtissues [1] = experiment: ATP depletion (CellTiter Glo Luminescent Cell Viability Assay) in cardiac microtissues; assay type: cell-based, human; settings: the concentration is the IC30 of ATP depletion, or cell death caused
Method: Cellular ATP concentrations were also assessed using the CellTiter Glo® Luminescent Cell Viability Assay as per the manufacturer’s instructions (Promega).

[2] = ref FDA label, cited from earlier work; for Structural cardiotoxin?: FDA label references heart failure or a decrease in left ventricular ejection fraction; for Functional cardiotoxin?: compound annotation
cardiac microtissues [3] = experiment: Transcriptomic profiling (mRNA-seq) and DESeq2 differential gene expression analysis in cardiac microtissues; settings: for number of significant differentially expressed genes, 6hr high / number of significant differentially expressed genes, 6hr low / number of significant differentially expressed genes, 48hr high / number of significant differentially expressed genes, 48hr low / number of significant differentially expressed genes, 72hr high / number of significant differentially expressed genes, 72hr low: absolute log2(Fold-Change) > 1, FDR p ≤ 0.05; for number of significant differentially expressed genes, 6hr high / number of significant differentially expressed genes, 48hr high / number of significant differentially expressed genes, 72hr high: high concentration; for number of significant differentially expressed genes, 6hr low / number of significant differentially expressed genes, 48hr low / number of significant differentially expressed genes, 72hr low: low concentration

| Compound | Transcriptomic high concentration (µM) = IC30 of ATP depletion (cardiac microtissues [1]) | Structural cardiotoxin? [2] | Functional cardiotoxin? [2] | number of significant differentially expressed genes, 6hr high (cardiac microtissues [3]) | number of significant differentially expressed genes, 6hr low (cardiac microtissues [3]) | number of significant differentially expressed genes, 48hr high (cardiac microtissues [3]) | number of significant differentially expressed genes, 48hr low (cardiac microtissues [3]) | number of significant differentially expressed genes, 72hr high (cardiac microtissues [3]) | number of significant differentially expressed genes, 72hr low (cardiac microtissues [3]) | impact on gene expression profiles (cardiac microtissues [3]; cardiac microtissues, all treatments) |
| --- | --- | --- | --- | --- | --- | --- | --- | --- | --- | --- |
| CS(=O)(=O)CCNCc1ccc(-c2ccc3ncnc(Nc4ccc(OCc5cccc(F)c5)c(Cl)c4)c3c2)o1 [Lapatinib] | 5.53 µM | Y | Y | 27 | 17 | 13 | 40 | 29 | 18 |  |
| COc1cccc2c1C(=O)c1c(O)c3c(c(O)c1C2=O)C[C@@](O)(C(=O)CO)C[C@@H]3O[C@H]1C[C@H](N)[C@H](O)[C@H](C)O1 [Doxorubicin HCl] | 0.36 µM | Y | Y | 17 | 26 | 5 | 5 | 4 | 5 | low impact on gene expression profiles |
